Experimental data as given in patent publication US7524646B2 (priority 2001, dated 2009).
Positions count from the first letter of the chain named. Names and notes keep the numbering of the source.

B1: K277Q: ValRS of E. coli with single substitution K277Q in the editing domain (protein, UniProt P07118 1-951, looked up, variant K277Q)
Valine--tRNA ligase: MEKTYNPQDIEQPLYEHWEKQGYFKPNGDESQESFCIMIPPPNVTGSLHMGHAFQQTIMDTMIRYQRMQGKNTLWQVGTDHAGIATQMVVERKIAAEEGKTRHDYGREAFIDKIWEWKAESGGTITRQMRRLGNSVDWERERFTMDEGLSNAVKEVFVRLYKEDLIYRGKRLVNWDPKLRTAISDLEVENRESKGSMWHIRYPLADGAKTADGKDYLVVATTRPETLLGDTGVAVNPEDPRYKDLIGKYVILPLVNRRIPIVGDEHADMEKGTGCVQITPAHDFNDYEVGKRHALPMINILTFDGDIRESAQVFDTKGNESDVYSSEIPAEFQKLERFAARKAVVAAVDALGLLEEIKPHDLTVPYGDRGGVVIEPMLTDQWYVRADVLAKPAVEAVENGDIQFVPKQYENMYFSWMRDIQDWCISRQLWWGHRIPAWYDEAGNVYVGRNEDEVRKENNLGADVVLRQDEDVLDTWFSSALWTFSTLGWPENTDALRQFHPTSVMVSGFDIIFFWIARMIMMTMHFIKDENGKPQVPFHTVYMTGLIRDDEGQKMSKSKGNVIDPLDMVDGISLPELLEKRTGNMMQPQLADKIRKRTEKQFPNGIEPHGTDALRFTLAALASTGRDINWDMKRLEGYRNFCNKLWNASRFVLMNTEGQDCGFNGGEMTLSLADRWILAEFNQTIKAYREALDSFRFDIAAGILYEFTWNQFCDWYLELTKPVMNGGTEAELRGTRHTLVTVLEGLLRLAHPIIPFITETIWQRVKVLCGITADTIMLQPFPQYDASQVDEAALADTEWLKQAIVAVRNIRAEMNIAPGKPLELLLRGCSADAERRVNENRGFLQTLARLESITVLPADDKGPVSVTKIIDGAELLIPMAGLINKEDELARLAKEVAKIEGEISRIENKLANEGFVARAPEAVIAKEREKLEGYAEAKAKLIEQQAVIAAL
B2: wild-type enzyme: wild-type valyl-tRNA synthetase (ValRS) of E. coli (protein, UniProt P07118 1-951, looked up)
Valine--tRNA ligase: B1 Valine--tRNA ligase with Q277K
B3: V276A: ValRS of E. coli with single substitution V276A in the editing domain (protein, UniProt P07118 1-951, looked up, variant V276A)
Valine--tRNA ligase: B1 Valine--tRNA ligase with V276A, Q277K
B4: D230N: ValRS of E. coli with single substitution D230N in the editing domain (protein, UniProt P07118 1-951, looked up, variant D230N)
Valine--tRNA ligase: B1 Valine--tRNA ligase with D230N, Q277K

Key:
[1] = tested on: strain PS2306 (wild type ileS gene, plasmid pVDC433); assay type: cell-based, E. coli; details: 0.1 ml of 25 mM amino acid in central well, 37 degrees, 24 hours
Description: (§1) Strains PS2306 and PS2449 are tested for their sensitivity to artificial amino acids which present a steric resemblance to isoleucine. The cells are cultivated in MS mineral medium, succinate (0.2%), arabinose (0.2%) for 24 h at 37 degrees centigrade and diluted at 1/250in MS mineral medium. 0.5 ml of this cell suspension are spread on a Petri dish containing 25 ml of MS medium supplemented with succinate (0.2%) and arabinose (0.2%). A well is then prepared in the middle of the dish and filled with 0.1 ml of an amino acid solution: • 1) 25 mM S-methyl cysteine • 2) 25 mM homocysteine • 3) 25 mM o-methyl-L-serine • 4) 25 mM Norleucine • 5) 25 mM Norvaline
(§2) The Petri dishes are then incubated at 37 degrees centigrade for 24 hours and the appearance of a zone of inhibition around the well is recorded. The diameters of the zones of attenuated growth are measured as follows: […]

[2] = tested on: strain PS2449 (mutated gene ileS ala11, plasmid pTLH33); assay type: cell-based, E. coli; details: 0.1 ml of 25 mM amino acid in central well, 37 degrees, 24 hours
Description: as §1, §2

[3] = tested on: strain β5520; assay: Suppression of thymidine auxotrophy by S-carbamoyl-cysteine; assay type: cell-based, E. coli; details: absence of thymidine, aerobic
Description: One-step selection scheme. For the one-step selections, cysteine oxidation under aerobiosis and subsequent cystine precipitation from the growth medium was avoided by use of the non-oxidizable precursor S-carbamoyl-cysteine (Scc). Scc is a poor precursor of cysteine and sustains growth of a Cys-auxotrophic E. coli strain less efficiently than cysteine. However, at concentrations above 1 mM, Scc gave rise to suppression of the thymidine auxotrophy of strain β5520, while in the absence of thymidine no growth was detectable below 1 mM Scc. When β5419 cells bearing the thyA:Val146GUA allele on a high copy plasmid were plated on mineral glucose plates supplemented with Scc (3 mM), no colonies grew after prolonged incubation at 30° C. (The experiment was designed to detect a mutant at a frequency of 10^−10.) To increase the mutation frequency, a mutS::spc+ (33) mutator allele was introduced in the genetic background of strain β5419 by P1 transduction, yielding strain β5432 (the mutS::spc+ disruption disables the mismatch repair system and leads to random transitions and frameshifts (34)). Colonies then appeared on the same medium with a frequency of about 10^−8. No colonies were found on plates lacking Scc.

[4] = tested on: [^3H]Thr-tRNAval; assay: Deacylation of mischarged Thr-tRNAVal by ValRS enzymes; assay type: biochemical, E. coli; details: 2 nM enzyme, room temperature
Description: FIG. 5B: Histogram representation of the inhibition zone diameters of DvalS::kanR strains harboring each of the ValRS editing mutants on plasmid in response to exogenous Abu. Effects range from mild to severe. Histogram representation of the percentage of mischarged Thr-tRNAVal remaining after incubation with 2 nM enzyme for 15 minutes at room temperature. Both show a distinct range in the severity of editing defects caused by these point mutations. Taken together this illustrates a correlation between the ability of the mutant enzyme to deacylate mischarged amino acids from tRNAVal in vitro and the degree of in vivo toxicity.
(§3) Misacylation of Thr onto tRNAval was performed in the same conditions except 5.86 μM [^3H]Thr was substituted forVal in the reaction. To test deacylation rates for these enzymes it was necessary to generate [^3H]Thr-tRNAval. […] Enzyme was incubated with 2.5 μM tRNAval and 45 uM [^3H]Thr, incubated at 37 C. for 45 minutes, extracted twice in phenol:chloroform, and ethanol precipitated. Pellet was dissolved in 100 μL sterile H2O and scintillation counting was used to determine the success of the reaction. Deacylation reactions, done in triplicate for each enzyme, were performed in 155 mM Tris-HCl (pH 7.5), 100 μg/ml BSA, 10 mM MgCl2. At room temperature 2 nM enzyme was combined with [^3H]Thr-tRNAval, at 3, 6, 9, 16, and 30 minutes aliquots (9 μL) of the reaction mixture were precipitated with tricholoracetic acid, and the amount of misaminoacylated [^3H]Thr-tRNAval remaining in the sample was determined by scintillation counting. A no enzyme control reaction was included to provide reference point.

[5] = tested on: tRNA^Val; assay: Misacylation of tRNAVal with Thr; assay type: biochemical, E. coli; details: pH 7.5, 37° C.
Description: FIG. 2B: A graph showing misaminoacylation of tRNA^Val with Thr by the T222P mutant enzyme at pH 7.5 and 37° C. The wild-type (WT) and mutant alleles were cloned under the control of a PBAD promoter (30). The enzymes were partially purified from a laboratory strain lacking the chromosomal copy of the valS gene (ΔvalS::kan+). The purification and aminoacylation procedures were adapted from Hendrickson et al. (31). (Main panel) Misaminoacylation of tRNA^Val with Thr by the two enzymes. (Inset) Aminoacylation of tRNA^Val with Val by the two enzymes.
Aminoaclyation Assay, Misacylation, and Deacylation: Aminoacylation assays were performed at 37 C. in a 100 uL volume containing buffer (20 mM HEPES, 0.1 mM EDTA disodium salt, 0.15M NH4Cl, 10 ug/mL BSA pH 7.5), […] MgCl2, 0.7 μM [^3H]Val, 20 μM cold Val, 2 μM tRNAval (Sigma) and 20 nM ValRS enzyme (adapted from Hendrickson et al. 2000). Aliquots (10 μL) of the reaction mixture were precipitated with tricholoracetic acid, and the level of aminoacylation of the tRNA was determined by scintillation counting.
as §3

| Molecule | diameters of the zones of attenuated growth [1] [cm] | diameters of the zones of attenuated growth [2] [cm] | concentration giving suppression of the thymidine auxotrophy [3] | deacylation of Thr-tRNA^Val in vitro [4] | misacylation of tRNA^Val with Thr [5] |
| --- | --- | --- | --- | --- | --- |
| CSC[C@H](N)C(=O)O [S-methyl-L-cysteine] | 1.3 | 3.0 | – | – | – |
| COC[C@H](N)C(=O)O [O-methyl-L-serine] | 2.2 | 5.6 | – | – | – |
| CCCC[C@H](N)C(=O)O [Norleucin, Norleucine] | 2.9 | 3.4 | – | – | – |
| CCC[C@H](N)C(=O)O [Norvaline] | 3.7 | 8.0 | – | – | – |
| NC(=O)SC[C@H](N)C(=O)O [Scc, S-carbamoyl-cysteine] | – | – | above 1 mM | – | – |
| N[C@@H](CCS)C(=O)O [Homocysteine] | 2.1 | 2.9 | – | – | – |
| B1 | – | – | – | most severe defects | high levels of mischarged Thr-tRNA^Val |
| B2 | – | – | – | – | no detectable mischarged tRNA^Val |
| B3 | – | – | – | closer to wild-type ValRS | low levels of mischarging |
| B4 | – | – | – | slowed rate of deacylation | low levels of mischarging |
